{"source": "patent US11643405B2", "about": "“Compound for treatment or prevention of liver diseases” (JIANGSU ATOM BIOSCIENCE AND PHARMACEUTICAL CO., LTD., priority 2018, dated 2023)", "key": {"NASH mice": {"test_system": "NASH mice", "assay": "Efficacy on non-alcoholic steatohepatitis (NASH) mice fed high-fat feed", "type": "in vivo, C57BL/6 mice", "conditions": "for Liver coefficient (liver weight/body weight) / Liver weight: 28 days; for Liver weight: X ± SD", "procedure": "The test compounds were 4 and 7, respectively; the positive control silymarin was purchased from Shanghai Dibai Biotechnology Co., Ltd., with the batch number HH06.\nLow-dose group (35 mg/kg) solution preparation: the quantitative test compound was precisely weighed and a certain amount of normal saline was added to prepare the oral suspension solution with the concentration of 3.5 mg/mL. The administration volume was 10 mL/kg.\nHigh-dose group (70 mg/kg) solution preparation: the quantitative test compound was precisely weighed and a certain amount of normal saline was added to prepare the oral suspension solution with the concentration of 7.0 mg/mL. The administration volume was 10 mL/kg.\nHigh-fat feed: basic feed ingredients were corn, flour, imported fish meal, soybean meal, secondary meal, yeast meal, soybean oil, etc. The high-fat feed was prepared from 73.6% basic feed with 10% lard, 10% egg yolk powder, 5% sucrose, 1.2% cholesterol and 0.2% pig bile salt.\nSource, species, strain: C57BL/6 mice, provided by Beijing Vital River Laboratory Animal Technology Co., Ltd. Nanjing Branch (experimental animal production license: SCXK (Su) 2016-0003); experimental animal use license: SYXK (Jun) 2012-0049; age: 6-8 weeks at the beginning of dosing; weight: 18-22 g; gender: half male and half female.\nAfter 3 days of adaptive feeding with normal feed, the mice were randomly assigned according to body weight: 8 mice were fed with normal feed and set as normal control (NC); the rest of mice were fed with high-fat feed until the end of the experiment. The mice were weighed and recorded every 3 days. After feeding with high-fat diet for 56 days (8 weeks), blood samples were collected from the orbital vein of mice to detect the blood biochemical indexes to identify whether the modelling was successful.\nAfter successful modeling, the mice in the high-fat feed group were randomly divided into 6 groups with 8 animals in each group, including model group, compound 4 low dose group, compound 4 high dose group, compound 7 low dose group, compound 7 high dose group and silymarin high-dose group. The mice in each group were administered intragastrically according to the animal's body weight every day for 28 consecutive days (4 weeks). At the same time, during the administration period, the mice in each administration group and model group continued to be fed with high-fat feed until the end of the experiment. The normal control group was administered the corresponding volume of normal saline.\nOn the last day of the experiment, the mice in each group were fasted for 8 hours, blood was taken from the orbit and the serum was separated and then stored at −20° C. After blood collection, the mice were sacrificed and the liver was quickly separated, weighed and stored in a refrigerator at −80° C. Serum samples and liver tissue samples were subjected to determinations of serum triglyceride (TG), serum total cholesterol (TC), serum high-density lipoprotein (HDL-C), serum low-density lipoprotein (LDL-C), serum alanine aminotransferase (ALT), serum aspartate aminotransferase (AST), serum tumor necrosis factor alpha (TNFα), liver triglycerides (TG), liver total cholesterol (TC), liver malondialdehyde (MDA), liver superoxide dismutase (SOD); in addition, some livers of mice in the blank control group, model group, compound 7 low-dose group and silymarin high-dose group were fixed in neutral formaldehyde fixed solution and then HE staining was performed to analyzed the pathological changes of liver tissue."}, "in vivo": {"assay": "in vivo", "conditions": "both sexes, ICR, mouse, po", "procedure": "The test compound was compound 7; the positive control silymarin was purchased from Shanghai Dibai Biotechnology Co., Ltd., with the batch number HH06. Immediately before use, the suspension was prepared with normal saline and ultrasound to prepare a suspension with a corresponding concentration.\nLow-dose group (1.5 g/kg) solution preparation: the quantitative test compound 7 or positive control compound was precisely weighed, and a certain amount of normal saline was added to prepare the oral suspension solution with the concentration of 75 mg/mL. The administration volume was 20 mL/kg.\nHigh-dose group (3.0 g/kg) solution preparation: the quantitative test compound 7 or positive control compound was precisely weighed, and a certain amount of normal saline was added to prepare the oral suspension solution with the concentration of 150 mg/mL. The administration volume was 20 mL/kg.\nICR mice, SPF grade, weight: 16-18 g, 6-8 weeks old. Provided by Nantong University, laboratory animal production license number: SCXK (Su) 2014-0001; laboratory animal use license: SYXK (Su) 2017-0007.\n16 ICR mice were randomly divided into compound 7 low-dose group, compound 7 high-dose group, silymarin low-dose group and silymarin high-dose group, with 4 mice in each group, half male and half female. […]"}}}
{"smiles": "COc1cc(C2Oc3cc(C4Oc5cc(O)cc(O)c5CC4O)cc(O)c3OC2CO)ccc1O", "note": "(centres unmarked) [Compound 7, 2-{8-hydroxy-3-(4-hydroxy-3-methoxyphenyl)-2-hydroxymethyl-2,3-dihydrobenzo[b][1,4]dioxan-6-yl}chroman-3,5,7-triol]", "values": [{"measurement": "TG", "setting": "NASH mice; 35 mg/kg/day", "result": "1.22 ± 0.06", "unit": "mmol/L"}, {"measurement": "Liver coefficient (liver weight/body weight)", "setting": "NASH mice; 35 mg/kg/day intragastric", "result": "4.53 ± 0.38", "unit": "%"}, {"measurement": "Liver weight", "setting": "NASH mice; 35 mg/kg/day intragastric", "result": "1.40 ± 0.05", "unit": "g"}, {"measurement": "TG", "setting": "NASH mice; 70 mg/kg/day", "result": "1.25 ± 0.06", "unit": "mmol/L"}, {"measurement": "Liver coefficient (liver weight/body weight)", "setting": "NASH mice; 70 mg/kg/day intragastric", "result": "4.51 ± 0.28", "unit": "%"}, {"measurement": "Liver weight", "setting": "NASH mice; 70 mg/kg/day intragastric", "result": "1.41 ± 0.02", "unit": "g"}, {"measurement": "Therapeutic effect on non-alcoholic steatohepatitis in mice (in words)", "setting": "NASH mice; 35 and 70 mg/kg", "result": "significant therapeutic effects"}, {"measurement": "MDA", "setting": "NASH mice; liver, 35 mg/kg/day", "result": "2.84 ± 0.24", "unit": "nmol/mg"}, {"measurement": "SOD", "setting": "NASH mice; liver, 35 mg/kg/day", "result": "18.54 ± 4.41", "unit": "U/mg"}, {"measurement": "TC", "setting": "NASH mice; liver, 35 mg/kg/day", "result": "1.53 ± 0.06", "unit": "mmol/L"}, {"measurement": "MDA", "setting": "NASH mice; liver, 70 mg/kg/day", "result": "2.79 ± 0.21", "unit": "nmol/mg"}, {"measurement": "SOD", "setting": "NASH mice; liver, 70 mg/kg/day", "result": "19.44 ± 3.11", "unit": "U/mg"}, {"measurement": "TC", "setting": "NASH mice; liver, 70 mg/kg/day", "result": "1.54 ± 0.09", "unit": "mmol/L"}, {"measurement": "Liver histopathology (HE staining)", "setting": "NASH mice; low-dose group (35 mg/kg)", "result": "no lipid droplet vacuoles caused by steatosis"}, {"measurement": "ALT", "setting": "NASH mice; serum, 35 mg/kg/day", "result": "63.03 ± 30.59", "unit": "U/L"}, {"measurement": "AST", "setting": "NASH mice; serum, 35 mg/kg/day", "result": "115.16 ± 13.42", "unit": "U/L"}, {"measurement": "HDL-C", "setting": "NASH mice; serum, 35 mg/kg/day", "result": "0.83 ± 0.35", "unit": "mmol/L"}, {"measurement": "LDL-C", "setting": "NASH mice; serum, 35 mg/kg/day", "result": "1.95 ± 0.50", "unit": "mmol/L"}, {"measurement": "TC", "setting": "NASH mice; serum, 35 mg/kg/day", "result": "2.59 ± 0.38", "unit": "mmol/L"}, {"measurement": "TG", "setting": "NASH mice; serum, 35 mg/kg/day", "result": "1.13 ± 0.06", "unit": "mmol/L"}, {"measurement": "TNF-α", "setting": "NASH mice; serum, 35 mg/kg/day", "result": "414.26 ± 11.57", "unit": "ng/L"}, {"measurement": "ALT", "setting": "NASH mice; serum, 70 mg/kg/day", "result": "75.75 ± 27.48", "unit": "U/L"}, {"measurement": "AST", "setting": "NASH mice; serum, 70 mg/kg/day", "result": "123.61 ± 5.41", "unit": "U/L"}, {"measurement": "HDL-C", "setting": "NASH mice; serum, 70 mg/kg/day", "result": "0.89 ± 0.46", "unit": "mmol/L"}, {"measurement": "LDL-C", "setting": "NASH mice; serum, 70 mg/kg/day", "result": "1.85 ± 0.37", "unit": "mmol/L"}, {"measurement": "TC", "setting": "NASH mice; serum, 70 mg/kg/day", "result": "2.63 ± 0.81", "unit": "mmol/L"}, {"measurement": "TG", "setting": "NASH mice; serum, 70 mg/kg/day", "result": "1.11 ± 0.07", "unit": "mmol/L"}, {"measurement": "TNF-α", "setting": "NASH mice; serum, 70 mg/kg/day", "result": "425.80 ± 9.77", "unit": "ng/L"}, {"measurement": "MTD at 14 days", "setting": "in vivo", "result": 3000, "unit": "mg/kg"}]}
